Values of other authors, collected in PubChem BioAssay AID1259409 (Chemical Carcinogenesis Research Information System (CCRIS), 2018).

System: rodent chemically induced tumor inhibition, incidence and multiplicity
Assay: CCRIS tumor inhibitor studies

## CC1=C(/C=C/C(C)=C/C=C/C(C)=C/C=C/C=C(C)/C=C/C=C(C)/C=C/C2=C(C)CCCC2(C)C)C(C)(C)CCC1
Carcinogen: 7,12-DIMETHYLBENZ[A]ANTHRACENE, 57-97-6, Dose [Inhibitor]: 0, 400 NMOL IN 200 µL ACETONE 2/WK BEGINNING 1 WK POST CARCINOGEN DOSE APPLIED SIMULTANEOUSLY WITH PROMOTER FOR 20 WK (S, Route [Inhibitor]: DERMAL, Species: MOUSE, Strain/Sex: ICR/?, Target Tissue: Type of Lesion: SKIN: PAPILLOMA, Dose [Carcinogen]: 100 UG ONCE, Promoter: 12-O-TETRADECANOYLPHORBOL-13-ACETATE, 16561-29-8
  tumour outcome (control, treated, inhibition, significance): 69%, 25%, 64%, not calculated
Carcinogen: 7,12-DIMETHYLBENZ[A]ANTHRACENE, 57-97-6, Dose [Inhibitor]: 0, 1430 IU/KG IN 100 µL PEANUT OIL 5 D/WK BEGINNING 1 WK POST CARCINOGEN DOSE AND CONTINUING FOR DURATION OF STUDY (STUD, Route [Inhibitor]: GAVAGE, Species: MOUSE, Strain/Sex: HRA/SKH/FEMALE, Target Tissue: Type of Lesion: SKIN: CARCINOMA, Dose [Carcinogen]: 10 NMOL IN 50 µL ACETONE ONCE
  tumour outcome (control, treated, inhibition, significance): 7/25 (28%), 8/37 (22%), 21%, not calculated
Carcinogen: 7,12-DIMETHYLBENZ[A]ANTHRACENE, 57-97-6, Dose [Inhibitor]: 0, 1430 IU/KG IN 100 µL PEANUT OIL 5 D/WK BEGINNING 1 WK POST CARCINOGEN DOSE AND CONTINUING FOR DURATION OF STUDY (STUD, Route [Inhibitor]: GAVAGE, Species: MOUSE, Strain/Sex: HRA/SKH/FEMALE, Target Tissue: Type of Lesion: SKIN: PAPILLOMA, Dose [Carcinogen]: 10 NMOL IN 50 µL ACETONE ONCE
  outcome: 97%, 77%, 21%, not calculated at 20 wk; 68%, 52%, 24%, not calculated at 40 wk
Carcinogen: 7,12-DIMETHYLBENZ[A]ANTHRACENE, 57-97-6, Dose [Inhibitor]: 140 UG (1.5 MG/KG BW) IN 0.4 ML MINERAL OIL 3/WK FOR 28 WK (STUDY DURATION: 28 WK), Route [Inhibitor]: ORAL, Species: HAMSTER, Strain/Sex: SYRIAN/MALE, Target Tissue: Type of Lesion: SKIN: CARCINOMA, Dose [Carcinogen]: 0.1% IN HEAVY MINERAL OIL APPLIED TO BUCCAL POUCH 3/WK FOR 28 WK, Promoter: NONE USED
  tumour outcome (control, treated, inhibition, significance): 20/20 (100%), 11/20 (55%), 45%, not calculated
Carcinogen: 7,12-DIMETHYLBENZ[A]ANTHRACENE, 57-97-6, Dose [Inhibitor]: 250 MG/KG IN DIET BEGINNING 6 WK PRIOR TO CARCINOGEN DOSE AND CONTINUING FOR 21-22 WK POST CARCINOGEN DOSE (STUDY DURATI, Route [Inhibitor]: ORAL, Species: RAT, Strain/Sex: SPRAGUE-DAWLEY/MALE, Target Tissue: Type of Lesion: SALIVARY GLAND: TUMOR, Dose [Carcinogen]: 1 MG IN 20 µL OLIVE OIL INJECTED INTO SUBMANDIBULAR GLAND ONCE, Promoter: NONE USED
  tumour outcome (control, treated, inhibition, significance): 20/28 (71%), 20/30 (67%), 6%, not significant
Carcinogen: BENZO[A]PYRENE, 50-32-8, Dose [Inhibitor]: 0, 0.5 G/G OF DIET FOR 6 WK (STUDY DURATION: 9 WK), Route [Inhibitor]: ORAL, Species: MOUSE, Strain/Sex: NIGP(S)/FEMALE, Target Tissue: Type of Lesion: LUNG: ADENOMA, Dose [Carcinogen]: 0.5 MG INJECTED IN THE SCAPULAR REGION OF NEWBORN MICE ONCE, Promoter: NONE USED
  tumour outcome (control, treated, inhibition, significance): 56%, 38%, 32%, not calculated
Carcinogen: BENZO[A]PYRENE, 50-32-8, Dose [Inhibitor]: 0, 0.5 G/G OF DIET FOR 6 WK (STUDY DURATION: 9 WK), Route [Inhibitor]: ORAL, Species: MOUSE, Strain/Sex: NIGP(S)/MALE, Target Tissue: Type of Lesion: LUNG: ADENOMA, Dose [Carcinogen]: 0.5 MG INJECTED IN THE SCAPULAR REGION OF NEWBORN MICE ONCE, Promoter: NONE USED
  tumour outcome (control, treated, inhibition, significance): 37%, 38%, -3%, not calculated
Carcinogen: BENZO[A]PYRENE, 50-32-8, Dose [Inhibitor]: 0, 4.7 MICROMOLAR/D IN 0.1 ML PEANUT OIL BEGINNING 2 WK PRIOR TO CARCINOGEN TREATMENT AND CONTINUING TO 2 WK POST CARCIN, Route [Inhibitor]: GAVAGE, Species: MOUSE, Strain/Sex: SWISS/FEMALE, Target Tissue: Type of Lesion: FORESTOMACH: TUMOR, Dose [Carcinogen]: 1 MG 2/WK IN 0.1 ML PEANUT OIL FOR 4 WK, Promoter: NONE USED
  tumour outcome (control, treated, inhibition, significance): 20/20 (100%), 3/20 (15%), 85%, p<0.001
Carcinogen: BENZO[A]PYRENE, 50-32-8, Dose [Inhibitor]: 2.5 MG/D IN DIET FOLLOWED 1 MO LATER BY 25 MG/0.250 KG BW BY GAVAGE 2/WK 2 HR PRIOR TO CARCINOGEN DOSE (STUDY DURATION:, Route [Inhibitor]: ORAL, GAVAGE, Species: MOUSE, Strain/Sex: SWISS/FEMALE, Target Tissue: Type of Lesion: SKIN: PAPILLOMA, SQUAMOUS EPITHELIOMA, Dose [Carcinogen]: 100 UG IN ACETONE 2/WK BEGINNING 1 MO AFTER AGENT DOSE AND CONTINUING FOR DURATION OF STUDY, Promoter: NONE USED
  tumour outcome (control, treated, inhibition, significance): @65%, @55%, 15%, p<0.05
Carcinogen: BENZO[A]PYRENE, 50-32-8, UV IRRADIATION, Carcinogen: BENZO[A]PYRENE, 50-32-8, UV IRRADIATION, Dose [Inhibitor]: 2.5 MG/D IN DIET FOLLOWED 1 MO LATER BY 25 MG/0.250 KG BW BY GAVAGE 2/WK GIVEN 2 HR PRIOR TO CARCINOGEN DOSE (STUDY DURA, Route [Inhibitor]: ORAL, GAVAGE, Species: MOUSE, Strain/Sex: SWISS/FEMALE, Target Tissue: Type of Lesion: SKIN: PAPILLOMA, SQUAMOUS EPITHELIOMA, Dose [Carcinogen]: 100 UG IN ACETONE 2/WK BEGINNING 1 MO AFTER AGENT DOSE AND CONTINUING FOR DURATION OF STUDY PLUS UV IRRADIATION (5890 ER, Promoter: NONE USED
  tumour outcome (control, treated, inhibition, significance): @93%, @40%, @57%, not calculated
Carcinogen: DIESEL EXHAUST PARTICLES, Dose [Inhibitor]: 0, 0.02% IN BASAL DIET FOR DURATION FO STUDY (STUDY DURATION: 12 MO), Route [Inhibitor]: ORAL, Species: MOUSE, Strain/Sex: ICR/MALE, Target Tissue: Type of Lesion: LYMPHATIC SYSTEM: LYMPHOMA, Dose [Carcinogen]: 0.2 MG 1/WK FOR 10 WK, Promoter: NONE USED
  tumour outcome (control, treated, inhibition, significance): 6/29 (21%), 5/30 (17%), 20%, not calculated
Carcinogen: DIESEL EXHAUST PARTICLES, Dose [Inhibitor]: 0, 0.02% IN BASAL DIET FOR DURATION OF STUDY (STUDY DURATION: 12 MO), Route [Inhibitor]: ORAL, Species: MOUSE, Strain/Sex: ICR/ MALE, Target Tissue: Type of Lesion: LYMPHATIC SYSTEM: LYMPHOMA, Dose [Carcinogen]: 0.1 MG 1/WK FOR 10 WK, Promoter: NONE USED
  tumour outcome (control, treated, inhibition, significance): 3/29 (10%), 2/30 (7%), 30%, not calculated
Carcinogen: DIESEL EXHAUST PARTICLES, Dose [Inhibitor]: 0, 0.02% IN BASAL DIET FOR DURATION OF STUDY (STUDY DURATION: 12 MO), Route [Inhibitor]: ORAL, Species: MOUSE, Strain/Sex: ICR/MALE, Target Tissue: Type of Lesion: LUNG: TUMOR, Dose [Carcinogen]: 0.05 MG 1/WK FOR 10 WK, Promoter: NONE USED
  tumour outcome (control, treated, inhibition, significance): 9/30 (30%), 6/30 (20%), 33%, not calculated
Carcinogen: DIESEL EXHAUST PARTICLES, Dose [Inhibitor]: 0, 0.02% IN BASAL DIET FOR DURATION OF STUDY (STUDY DURATION: 12 MO), Route [Inhibitor]: ORAL, Species: MOUSE, Strain/Sex: ICR/MALE, Target Tissue: Type of Lesion: LUNG: TUMOR, Dose [Carcinogen]: 0.1 MG 1/WK FOR 10 WK, Promoter: NONE USED
  tumour outcome (control, treated, inhibition, significance): 9/29 (31%), 10/30 (33%), -6%, not calculated
Carcinogen: DIESEL EXHAUST PARTICLES, Dose [Inhibitor]: 0, 0.02% IN BASAL DIET FOR DURATION OF STUDY (STUDY DURATION: 12 MO), Route [Inhibitor]: ORAL, Species: MOUSE, Strain/Sex: ICR/MALE, Target Tissue: Type of Lesion: LUNG:TUMOR, Dose [Carcinogen]: 0.2 MG 1/WK FOR 10 WK, Promoter: NONE USED
  tumour outcome (control, treated, inhibition, significance): 7/29 (24%), 8/30 (27%), -13%, not calculated
Carcinogen: DIESEL EXHAUST PARTICLES, Dose [Inhibitor]: 0, 0.02% IN BASAL DIET FOR DURATION OF STUDY (STUDY DURATION: 12 MO), Route [Inhibitor]: ORAL, Species: MOUSE, Strain/Sex: ICR/MALE, Target Tissue: Type of Lesion: LYMPHATIC SYSTEM: LYMPHOMA, Dose [Carcinogen]: 0.05 MG 1/WK FOR 10 WK, Promoter: NONE USED
  tumour outcome (control, treated, inhibition, significance): 3/30 (10%), 4/30 (13%), -30%, not calculated
Carcinogen: DIESEL EXHAUST PARTICLES, Dose [Inhibitor]: 0, 0.02% IN HIGH FAT DIET FOR DURATION OF STUDY (STUDY DRUATION : 12 MO), Route [Inhibitor]: ORAL, Species: MOUSE, Strain/Sex: ICR/MALE, Target Tissue: Type of Lesion: LYMPHATIC SYSTEM: LYMPHOMA, Dose [Carcinogen]: 0.05 MG 1/WK FOR 10 WK, Promoter: NONE USED
  tumour outcome (control, treated, inhibition, significance): 5/30 (17%), 5/30 (17%), 0%, not significant
Carcinogen: DIESEL EXHAUST PARTICLES, Dose [Inhibitor]: 0, 0.02% IN HIGH FAT DIET FOR DURATION OF STUDY (STUDY DURATION: 12 MO), Route [Inhibitor]: ORAL, Species: MOUSE, Strain/Sex: ICR/MALE, Target Tissue: Type of Lesion: LUNG: TUMOR, Dose [Carcinogen]: 0.05 MG 1/WK FOR 10 WK, Promoter: NONE USED
  tumour outcome (control, treated, inhibition, significance): 12/30 (40%), 9/30 (30%), 25%, not calculated
